According to ChEMBL document CHEMBL5500382, “Discovery of potent small molecule ubiquitin-specific protease 10 inhibitors with anti-hepatocellular carcinoma activity through regulating YAP expression” (Eur J Med Chem, 2024):

Tests used:
[1] = molecular target: T1, Ubiquitin carboxyl-terminal hydrolase 13 (Homo sapiens, UniProt Q92995); test: Inhibition of USP13 (unknown origin)
T1 sequence (Q92995 whole entry): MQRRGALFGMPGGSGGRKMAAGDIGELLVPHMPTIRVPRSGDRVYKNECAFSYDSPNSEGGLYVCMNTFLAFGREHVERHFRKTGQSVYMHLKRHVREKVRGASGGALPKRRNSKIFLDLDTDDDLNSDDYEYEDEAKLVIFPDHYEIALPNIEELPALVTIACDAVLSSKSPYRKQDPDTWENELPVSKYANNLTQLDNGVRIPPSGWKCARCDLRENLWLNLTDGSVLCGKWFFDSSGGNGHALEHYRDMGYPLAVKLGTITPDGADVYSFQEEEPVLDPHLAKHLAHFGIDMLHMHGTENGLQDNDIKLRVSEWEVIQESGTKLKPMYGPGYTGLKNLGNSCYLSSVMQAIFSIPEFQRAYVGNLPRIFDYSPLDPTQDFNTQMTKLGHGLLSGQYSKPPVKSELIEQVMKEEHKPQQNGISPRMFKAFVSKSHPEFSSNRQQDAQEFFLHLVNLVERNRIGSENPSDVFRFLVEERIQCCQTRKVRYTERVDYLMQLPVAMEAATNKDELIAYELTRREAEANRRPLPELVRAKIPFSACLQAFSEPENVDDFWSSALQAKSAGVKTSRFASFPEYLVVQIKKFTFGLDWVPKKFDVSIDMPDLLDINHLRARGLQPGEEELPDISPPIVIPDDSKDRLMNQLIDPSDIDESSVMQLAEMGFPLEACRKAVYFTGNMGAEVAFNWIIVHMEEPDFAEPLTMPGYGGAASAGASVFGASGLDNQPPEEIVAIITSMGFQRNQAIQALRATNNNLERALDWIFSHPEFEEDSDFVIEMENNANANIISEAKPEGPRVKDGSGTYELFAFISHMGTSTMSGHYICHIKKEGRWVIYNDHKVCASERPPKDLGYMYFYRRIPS

[2] = molecular target: T2, Ubiquitin carboxyl-terminal hydrolase 10 (Homo sapiens, UniProt Q14694); test: Inhibition of human USP10 deubiquitinase activity using Ubiquitin 7-amino-4-carbamoylmethylcoumarin as substrate preincubated for 30 mins followed by substrate addition and measured after 30 mins by fluorometric assay
Bel-7402 = test: Antiproliferative activity against human Bel-7402 cells by CCK-8 method
[3] = molecular target: T2, Ubiquitin carboxyl-terminal hydrolase 10; test: Inhibition of human recombinant his tagged USP10 assessed as deubiquitinase activity

T2 sequence (Q14694 whole entry): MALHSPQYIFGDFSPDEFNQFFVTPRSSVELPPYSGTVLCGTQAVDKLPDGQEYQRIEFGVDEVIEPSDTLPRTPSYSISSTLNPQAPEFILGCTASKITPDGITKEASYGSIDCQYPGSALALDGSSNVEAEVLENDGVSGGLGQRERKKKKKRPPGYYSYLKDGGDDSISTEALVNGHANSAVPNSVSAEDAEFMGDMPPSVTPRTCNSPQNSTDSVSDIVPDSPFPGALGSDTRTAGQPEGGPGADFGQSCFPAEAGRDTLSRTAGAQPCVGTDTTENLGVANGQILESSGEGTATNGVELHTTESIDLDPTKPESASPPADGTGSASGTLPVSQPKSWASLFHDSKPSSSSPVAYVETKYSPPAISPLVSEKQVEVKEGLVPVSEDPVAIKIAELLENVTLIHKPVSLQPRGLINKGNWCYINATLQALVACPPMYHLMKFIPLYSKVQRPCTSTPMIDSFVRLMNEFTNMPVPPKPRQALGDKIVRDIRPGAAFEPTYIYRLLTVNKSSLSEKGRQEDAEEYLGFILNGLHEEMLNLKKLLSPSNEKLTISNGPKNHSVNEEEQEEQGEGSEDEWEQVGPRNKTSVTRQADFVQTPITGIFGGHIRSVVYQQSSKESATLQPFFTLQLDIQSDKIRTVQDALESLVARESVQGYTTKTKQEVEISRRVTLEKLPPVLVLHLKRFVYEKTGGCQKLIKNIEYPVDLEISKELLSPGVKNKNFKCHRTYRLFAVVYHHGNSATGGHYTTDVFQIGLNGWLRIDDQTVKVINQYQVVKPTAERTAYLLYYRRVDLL

SMILES | IC50 [2] [µM] | also measured
Fc1ccc(CNc2ncnc3ccc(F)cc23)cc1 | – | IC50 [1]: 0.7 µM
Cc1ccccc1NC(=O)c1cn(CC(=O)N2CCC(N3CCN(C)CC3)CC2)c2cc(C(F)(F)F)ccc2c1=O | > 30 | –
COc1ccc([C@H](C)NC(=O)c2cn(CC(=O)NCCc3ccc(Cl)cc3)c3cc(C)ccc3c2=O)cc1 | 21.2 | –
Cc1ccccc1NC(=O)c1cn(CC(=O)NCCc2ccc(Cl)cc2)c2cc(N3CCOCC3)ccc2c1=O | 8.4 | –
COCCOc1ccc(N2CCN(C(=O)Cn3cc(C(=O)Nc4ccccc4C)c(=O)c4ccc(C(F)(F)F)cc43)CC2)cc1 | > 30 | –
Cc1ccc2c(=O)c(-c3nc(-c4ccccc4C)no3)cn(CC(=O)Nc3c(F)cccc3F)c2n1 | 11.1 | IC50 (Bel-7402): 22.7 µM
C[C@H](NC(=O)c1cn(CC(=O)NCCc2ccc(Cl)cc2)c2cc(C(F)(F)F)ccc2c1=O)c1ccccc1 | > 30 | –
Cc1ccc2c(=O)c(-c3nnc(Cc4ccccc4)o3)cn(CC(=O)NCCc3ccc(Cl)cc3)c2c1 | 9 | –
Cc1ccc2c(=O)c(-c3nc(-c4ccccc4C)no3)cn(CC(=O)NC3CCN(c4ccc(Cl)cc4)CC3)c2c1 | 9.2 | –
C[C@H](NC(=O)c1cn(CC(=O)NCCc2ccc(Cl)cc2)c2cc(F)ccc2c1=O)c1ccccc1 | 11.9 | –
Cc1ccc2c(=O)c(C(=O)N[C@@H](C)c3ccccc3)cn(CC(=O)N3CCN(c4ccc(Cl)cc4)CC3)c2c1 | 10.9 | –
Cc1ccccc1NC(=O)c1cn(CC(=O)N2CC3(CCN(C(=O)OC(C)(C)C)CC3)C2)c2cc(C(F)(F)F)ccc2c1=O | > 30 | –
Cc1ccc2c(=O)c(C(=O)N[C@@H](C)c3ccc(F)cc3)cn(CC(=O)NCCc3ccc(Cl)cc3)c2c1 | > 30 | –
Cc1ccc2c(c1)c(=O)c(C(=O)Nc1ccccc1C)cn2CC(=O)NCCc1ccc(Cl)cc1 | > 30 | –
Cc1ccc2c(=O)c(C(=O)NC3CCOCC3)cn(CC(=O)NCCc3ccc(Cl)cc3)c2n1 | > 30 | –
Cc1ccccc1NC(=O)c1c[nH]c2cc(C(F)(F)F)ccc2c1=O | > 30 | –
Cc1ccc2c(=O)c(C(=O)N[C@@H](C)c3ccccc3)cn(CC(=O)NCCc3ccc(Cl)cc3)c2c1 | > 30 | –
Cc1ccccc1NC(=O)c1cn(CC(=O)NCCc2ccc(Cl)cc2)c2ccc(F)cc2c1=O | > 30 | –
Cc1ccccc1NC(=O)c1cn(CC(=O)NC(C)CO)c2cc(C(F)(F)F)ccc2c1=O (stereo not given) | > 30 | –
Cc1ccccc1NC(=O)c1cn(CC(=O)NCCc2ccc(Cl)cc2)c2cc(N3CCCCC3)ccc2c1=O | 10.6 | –
Cc1ccc2c(=O)c(C(=O)Nc3ccccc3C)cn(CC(=O)NCCc3ccc(Cl)cc3)c2n1 | 9.5 | –
Cc1ccc2c(=O)c(C(=O)N3CCOCC3)cn(CC(=O)NCCc3ccc(Cl)cc3)c2n1 | > 30 | –
COc1ccc2c(=O)c(-c3nc(-c4ccccc4C)no3)cn(CC(=O)NCCc3ccc(Cl)cc3)c2c1 | 7.9 | –
CCOC(=O)c1cc([N+](=O)[O-])c(Oc2ccc(C(=O)OC)cc2)s1 | – | IC50 [3]: 8.3 µM
